This is an account of results in patent publication US7855174B2 (priority 2007, dated 2010).

One assay deals with rat mesenteric arteries. The experiment in a line: tissue or blood.
A further assay relates to MLC. The arrangement: species or system rat.

Each structure is given as a SMILES string. Where two headings read alike, the source gives them in different places.

Turning to `NC[C@H](O)c1ccc(O)c(O)c1` [NE, norepinephrine], the figures for the EC50 with rat mesenteric arteries (read-out: EC50 of concentration-contraction relationship), in the assay on rat mesenteric arteries (read-out: apparent EC50 for NE (contraction)) and with rat mesenteric arteries (read-out: approximate EC50 in isolated vessels) were 1100 nM, 34 nM and roughly 1000 nM, respectively. Also, the “change of Ser19 pMLC and total pMLC with concentration” value with MLC was “increases in both total pMLC and Ser19 pMLC”.
